From patent US7355063B2, “Shogaol compound and tyrosinase activity inhibitor comprising the compound” (Toagosei Co., Ltd., priority 2003, dated 2008)

Legend:
mushroom tyrosinase = assay: Tyrosinase activity inhibition test using L-dopa as substrate (Test Examples 1 and 2, absorbance at 475 nm); type: biochemical; conditions: Table 1
Experimental: Using the compound 7 obtained in Example 2, the compound 13 obtained in Example 5, a mixture of the compound 18 and the compound 19 (existing molar ratio 45:55) obtained in Example 7, and arbutin (manufactured by Tokyo Kasei Kogyo Co., Ltd.) as a comparative control, a tyrosinase activity inhibition test was carried out using L-dopa as a substrate.
The specific test procedures are as follows. • (1) 1.80 ml of a phosphate buffer prepared by dissolving 1.000 g of sodium dihydrogen phosphate and 1.186 g of disodium hydrogen phosphate in 500 ml of distilled water, 1.00 ml of a substrate solution prepared by dissolving 32.7 mg of L-DOPA in 200 ml of distilled water, and 0.10 ml of a test solution prepared by dissolving the test compound in dimethyl sulfoxide were mixed together. • (2) 0.10 ml of an enzyme solution prepared by dissolving 3.0 mg (2400 units; manufactured by Sigma Corporation) of mushroom tyrosinase in 7.0 ml of distilled water was added to the solution prepared in (1), and the whole was stirred for 15 seconds. The resulting solution was maintained at 25° C., and the absorbance at 475 nm was measured one minute and 45 seconds later and 2 minutes and 45 seconds later. • (3) The test operations in the above (1) and (2) were conducted three times for the individual test compounds and blank test (only dimethyl sulfoxide), and the resulting numeric value was inserted in the following calculation formula and a mean value thereof was regarded as a tyrosinase activity inhibition ratio (%). Tyrosinase activity inhibition ratio (%)=[(T^1−T^2)/T^1]×100 • T^1=difference in absorbance of solution with addition of no test compound between 2 minutes and 45 seconds later and one minute and 45 seconds later • T^2=difference in absorbance of solution with addition of test compound was added between 2 minutes and 45 seconds later and one minute and 45 seconds later
Using the compound 40 obtained in Example 24 and arbutin (manufactured by Tokyo Kasei Kogyo Co., Ltd.) as a comparative control, a tyrosinase activity inhibition test was carried out using L-dopa as a substrate. The test procedure was in accordance with Test Example 1.

[1] = target: T1, hyaluronic acid-degrading enzyme (derived from bovine testicles, Type IV-S) (Bos taurus, UniProt Q2YDK3); assay: Hyaluronic acid-degrading enzyme activity inhibition test; type: biochemical
T1 construct: derived from bovine testicles manufactured by Sigma Corporation, Type IV-S; purchased Sigma Corporation Type IV-S; host or cells: bovine testicles
T1 sequence (Q2YDK3 36-553): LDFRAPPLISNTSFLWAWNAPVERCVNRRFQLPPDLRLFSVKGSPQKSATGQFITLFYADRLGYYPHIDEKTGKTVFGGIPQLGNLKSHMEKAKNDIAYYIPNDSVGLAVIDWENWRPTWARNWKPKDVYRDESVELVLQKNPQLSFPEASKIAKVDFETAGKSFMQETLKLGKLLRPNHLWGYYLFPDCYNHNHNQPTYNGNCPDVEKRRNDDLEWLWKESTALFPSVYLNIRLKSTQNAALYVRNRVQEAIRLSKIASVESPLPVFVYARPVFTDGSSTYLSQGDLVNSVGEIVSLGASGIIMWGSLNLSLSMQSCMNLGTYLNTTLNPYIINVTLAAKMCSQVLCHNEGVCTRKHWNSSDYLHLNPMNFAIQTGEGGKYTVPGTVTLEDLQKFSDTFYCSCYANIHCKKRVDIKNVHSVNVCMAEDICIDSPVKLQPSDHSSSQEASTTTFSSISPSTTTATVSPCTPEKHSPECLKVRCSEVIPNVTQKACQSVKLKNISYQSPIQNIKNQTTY
Experimental: Using the compound 7 obtained in Example 2, the compound 34, and magnesium ascorbate phosphate as a comparative control, a hyaluronic acid-degrading enzyme activity inhibition test was carried out.
(§1) First, the following solutions shown in A to H were each prepared. • A: 0.1M acetate buffer solution was prepared by dissolving 0.60 g of acetic acid in 100 ml of distilled water. • B: A hyaluronidase solution was prepared by dissolving 7.2 mg of a hyaluronic acid-degrading enzyme (derived from bovine testicles manufactured by Sigma Corporation, Type IV-S) into 3.0 ml of the acetate buffer (prepared in the above A). • C: An activator solution was prepared by dissolving 1.0 mg of compound 48/80 (a hyaluronidase activator manufactured by Sigma Corporation) into 10.0 ml of the acetate buffer (prepared in the above A). • D: A hyaluronic acid solution was prepared by dissolving 12.0 mg of potassium hyaluronate (manufactured by Wako Pure Chemical Industries, Ltd.) into 15.0 ml of the acetate buffer (prepared in the above A). • E: A 0.4N sodium hydroxide aqueous solution was prepared by dissolving 1.60 g of sodium hydroxide into 100 ml of distilled water. • F: After 4.95 g of boric acid was dissolved into 50 ml of distilled water, a 1N sodium hydroxide aqueous solution was added until pH reached 9.1. Subsequently, the whole amount was made 100 ml by adding distilled water. • G: 1.0 g of p-dimethylaminobenzaldehyde, 1.25 ml of 10N hydrochloric acid, and 8.75 ml of acetic acid were mixed. The solution was used after the whole amount was made 100 ml by adding acetic acid immediately before use. • H: Each test compound was dissolved in the acetate buffer (prepared in the above A) so the final test concentration became 0.5 mg/ml and 1.0 mg/ml.
Next, the experimental operation was carried out with the procedures shown in the following (1) to (8).
(1) 0.2 ml of the test compound solution (prepared in the above H) and 0.1 ml of the hyaluronic acid-degrading enzyme solution (prepared in the B) were mixed and the whole was incubated at 37° C. for 20 minutes.
(2) To the above reaction solution was added 0.2 ml of the activator solution (prepared in the above C) and the whole was incubated at 37° C. for 20 minutes.
(3) To the above reaction solution was added 0.5 ml of the hyaluronic acid solution (prepared in the above D), and the whole was incubated at 37° C. for 40 minutes.
(4) To the above reaction solution was added 0.2 ml of the 0.4N sodium hydroxide aqueous solution (prepared in the above E), and the whole was cooled in an ice bath.
(5) To the above reaction solution was added 0.2 ml of the boric acid solution (prepared in the above F), and the whole was heated at 100° C. for 3 minutes.
(6) The above reaction solution was cooled in an ice bath.
(7) To the above reaction solution was added 3.0 ml of the p-dimethylaminobenzaldehyde solution (prepared in the above G), and the whole was incubated at 37° C. for 20 minutes.
(8) Absorbance of the reaction solution at 585 nm was measured using a spectrophotometer.
The above experimental operations were repeated three times, and the resulting numeric value was inserted in the following calculation formula and a mean value thereof was regarded as a hyaluronic acid-degrading enzyme activity inhibition ratio (%). Hyaluronic acid-degrading enzyme activity inhibition ratio (%)=(A−B)/A×100
A=absorbance obtained at the time when operation was carried out with addition of no test compound
B=absorbance obtained at the time when operation was carried out with addition of test compound
The compounds of the invention and magnesium ascorbate phosphate were each used in an enzymatic reaction solution in amounts of 0.1 mg/ml, 0.2 mg/ml, and 0.4 mg/ml, and the results were shown in Table 7 (since the compound 7 was not dissolved in a concentration of 0.4 mg/ml, the test was not carried out).

[2] = Test of scavenging DPPH radical (Test Example 8, 517 nm); conditions: final concentration of 10 μg/mL; 20 minutes, room temperature
Experimental: Using the compound 7 obtained in Example 2 as well as dl-α-tocopherol (manufactured by Tokyo Kasei Kogyo Co., Ltd.) and butylhydroxytoluene (BHT) as comparative controls, a test of scavenging DDPH (1,1-diphenyl-2-picrylhydrazyl) radical, a stable radical, was carried out.
1 ml of 200 μM DPPH ethanol solution was added to 800 μl of 100 mM Tris-HCl buffer (pH 7.4) and 200 μl of an ethanol solution of the compound 7 (a final concentration of 10 μg/mL), followed by sufficient stirring. After the resulting mixture was allowed to stand in a dark place at room temperature for 20 minutes, the absorbance at 517 nm was measured (absorbance of the test solution)
The compound 13 of the invention as well as dl-α-tocopherol and butylhydroxytoluene as a known radical scavenger were similarly tested.
As a control, 800 μl of 100 mM Tris-HCl buffer (pH 7.4), 200 μl of ethanol, and 1 ml of 200 μM DPPH ethanol solution were used in the same manner as described above and the absorbance was measured (absorbance of the control solution).
With the individual compounds, the same measurement was repeated three times, and the mean value was inserted in the following formula to calculate a DPPH radical-scavenging ratio (%). DPPH radical-scavenging ratio (%)=[1−(absorbance of sample solution/absorbance of control solution)]×100

[3] = Dissolution of test compound for the hyaluronic acid-degrading enzyme test; type: physicochemical; conditions: concentration of 0.4 mg/ml, acetate buffer
Experimental: as §1, with “The solution was used after the whole amount was made 100 ml by adding acetic acid immediately before use. • H: Each test compound was dissolved in the acetate buffer (prepared in the above A) so the final test concentration became 0.5 mg/ml and 1.0 mg/ml.” left out

Tyrosinase activity inhibition ratio (%) (mushroom tyrosinase; 0.5 mg/mL in enzymatic reaction solution): 59.8%
Tyrosinase activity inhibition ratio (%) (mushroom tyrosinase; 1 mg/mL in enzymatic reaction solution): 77.1%
Hyaluronic acid-degrading enzyme activity inhibition ratio (%) ([1]; 0.1 mg/mL): 10.6%
Hyaluronic acid-degrading enzyme activity inhibition ratio (%) ([1]; 0.2 mg/mL): 41.3%
Solubility in the test solution [3]: not dissolved
SMILES: COc1cc(CCC(=O)/C=C/CCCCCCC(=O)O)ccc1O [Compound 7]
DPPH radical-scavenging ratio (%) [2]: 33.7%
